Legend:
human TLR7 = molecular target: T1, human TLR7 (Homo sapiens, UniProt Q9NYK1); assay: HEK-Blue hTLR7 NF-κB/AP-1-inducible SEAP reporter cell assay; assay type: cell-based; details: Figure 1; 10 µg/mL to 10 pg/ml, 24 hours, SEAP read as OD at 655 nm
T1 construct: host or cells: HEK293 (ATCC, CRL-1573), HEK-Blue hTLR7
T1 sequence (Q9NYK1 27-1049): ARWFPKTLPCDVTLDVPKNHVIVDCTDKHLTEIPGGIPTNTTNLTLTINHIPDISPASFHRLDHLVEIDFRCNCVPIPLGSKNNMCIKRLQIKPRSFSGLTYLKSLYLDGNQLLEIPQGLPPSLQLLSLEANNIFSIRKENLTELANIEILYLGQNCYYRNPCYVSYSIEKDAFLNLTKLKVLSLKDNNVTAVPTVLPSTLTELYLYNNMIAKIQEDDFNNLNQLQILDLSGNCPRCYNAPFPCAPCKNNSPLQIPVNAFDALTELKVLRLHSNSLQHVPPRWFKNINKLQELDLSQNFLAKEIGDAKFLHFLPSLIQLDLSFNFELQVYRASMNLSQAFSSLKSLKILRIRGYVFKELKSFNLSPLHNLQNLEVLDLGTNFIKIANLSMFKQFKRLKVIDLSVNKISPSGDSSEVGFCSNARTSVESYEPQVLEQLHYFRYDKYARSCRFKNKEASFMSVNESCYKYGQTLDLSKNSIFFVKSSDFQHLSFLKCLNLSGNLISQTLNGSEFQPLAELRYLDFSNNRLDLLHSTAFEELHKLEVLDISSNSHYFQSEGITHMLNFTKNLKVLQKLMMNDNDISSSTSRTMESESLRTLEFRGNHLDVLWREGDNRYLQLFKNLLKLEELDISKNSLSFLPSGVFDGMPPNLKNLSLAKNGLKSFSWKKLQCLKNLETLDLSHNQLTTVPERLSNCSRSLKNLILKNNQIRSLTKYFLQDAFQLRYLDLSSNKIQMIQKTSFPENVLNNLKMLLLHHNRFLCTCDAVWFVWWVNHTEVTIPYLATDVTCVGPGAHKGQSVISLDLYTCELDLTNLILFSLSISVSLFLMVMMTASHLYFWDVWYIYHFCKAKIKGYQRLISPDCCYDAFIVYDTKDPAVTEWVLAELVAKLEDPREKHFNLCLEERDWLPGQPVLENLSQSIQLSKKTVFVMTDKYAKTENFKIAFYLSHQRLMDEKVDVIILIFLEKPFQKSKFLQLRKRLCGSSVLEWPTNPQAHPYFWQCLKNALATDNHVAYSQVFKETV
Text: (§1) Assays for detecting TLR7, TLR8 or TLR2 activity are known in the art and include for example cell-based assays using respectively TLR7, TLR8 or TLR2 reporter cell lines (InvivoGen). The reporter cell lines are engineered HEK293 cells, a human embryonic kidney cell line (ATCC, CRL-1573) that stably express either murine TLR7 (HEK-Blue™ mTLR7) or human TLR7 (HEK-Blue™ hTLR7), human TLR8 (HEK-Blue™ hTLR8) or human TLR2 (HEK- Blue™ hTLR2) with an NF-κB-inducible secreted embryonic alkaline phosphatase (SEAP) as the reporter gene.
(§2) Cell-based assays were carried out using TLR7 and TLR2 reporter cell lines (InvivoGen). The reporter cell lines are engineered HEK293 cells, a human embryonic kidney cell line (ATCC, CRL-1573) that stably express either murine TLR7 (HEK-Blue™ mTLR7) or human TLR7 (HEK-Blue™ hTLR7) or human TLR2 (HEK- Blue™ hTLR2) with an NF-κB-inducible secreted embryonic alkaline phosphatase (SEAP) as the reporter gene. The SEAP reporter gene is under the control of the NF-κB and AP-1-inducible promoter, which, upon treatment with a corresponding TLR ligand and activation of NF-κB and AP-1, induces the production of SEAP. Detection of SEAP is measured following culturing cells in HEK-Blue™ Detection media (InvivoGen). HEK-Blue™ Detection contains a SEAP substrate that when hydrolysed by SEAP produces a colorimetric change allowing for detection of SEAP as the protein is secreted. […] These assays were carried out using RAW-Blue™ Cells (InvivoGen), derived from RAW 264.7 mouse leukemic monocyte macrophage cell line (ATCC, CRL 2278) stably overexpressing a NF-κB /AP-1 inducible SEAP reporter constructs.
(§3) To perform the assay, cells were seeded on 96 well microliter plates at 50,000 or 100,000 cells per well for HEK-Blue™ Cells and RAW-Blue™ Cells respectively, and cultured at 37 °C in the presence of the conjugated compounds The TLR7-TLR2 polyamine molecules were prepared as follows: First, stock solutions of the conjugated compounds of the invention were prepared in ethanol or water to a concentration of 10 mg/ml.
(§4) The working dilutions of the conjugated TLR7-TLR2 polyamine agonists made up in water or PBS were directly added to the reporter cell lines at a final concentration ranging from 10 µg/mL to 10 pg/ml and incubated at 37 °C for 24 hours. After 24 hours of incubation, the effect on reporter gene activity was determined by reading the OD at 655 nm using iMark™ Microplate Reader (BIO-RAD).

human TLR2 = molecular target: T2, human TLR2 (Homo sapiens, UniProt O60603); assay: HEK-Blue hTLR2 NF-κB/AP-1-inducible SEAP reporter cell assay; assay type: cell-based; details: Figure 3; 10 µg/mL to 10 pg/ml, 24 hours, SEAP read as OD at 655 nm
T2 construct: host or cells: HEK293 (ATCC, CRL-1573), HEK-Blue hTLR2
Text: as §1, §2, §3, §4

HEK293 cells = assay: Cell transfection with SEAP plasmid, HEK293; assay type: cell-based, human; details: Figure 5A; in complex with pVitro14 LGFP SEAP plasmid, 48 hours, SEAP reporter gene expression
Protocol: (§5) The TLR7-TLR2 molecules were tested for their ability as polyamine molecules to transport plasmid DNA (pDNA) into cells. The pVitro14 LGFP SEAP plasmid (InvivoGen) was complexed to TLR7-TLR2 polyamine molecules and to the control cationic lipid transfection agent, LyoVec™ (InvivoGen). The human HEK293 (ATCC, CRL-1573) and mouse B16-F1 melanoma (ATCC, CRL-6323) cell lines were seeded at a density of 50 000 cells/well and 20 000 cells/well respectively, in the absence or presence of different volumes of the plasmid encoding for the SEAP protein in complex with TLR7-TLR2 polyamine molecules for 48 hours at 37°C and 10% CO2. Transfection efficiency was assessed by measuring SEAP reporter gene expression: 20 µl of supernatant was sampled and mixed with 180 µl of QUANTI-Blue™ Detection (InvivoGen). In the presence of alkaline phosphatase SEAP, the color of QUANTI-Blue™ changes from pink to purple/blue. The intensity of the blue hue reflects the activity of SEAP. The levels of SEAP secretion were determined quantitatively by reading the OD at 620-655 nm using a spectrophotometer, iMark™ Microplate Reader (BIO-RAD).

B16-F1 cells = assay: Cell transfection with SEAP plasmid, B16-F1; assay type: cell-based, mouse; details: Figure 5B; in complex with pVitro14 LGFP SEAP plasmid, 48 hours, SEAP reporter gene expression
Protocol: as §5

T2 sequence (O60603 21-784): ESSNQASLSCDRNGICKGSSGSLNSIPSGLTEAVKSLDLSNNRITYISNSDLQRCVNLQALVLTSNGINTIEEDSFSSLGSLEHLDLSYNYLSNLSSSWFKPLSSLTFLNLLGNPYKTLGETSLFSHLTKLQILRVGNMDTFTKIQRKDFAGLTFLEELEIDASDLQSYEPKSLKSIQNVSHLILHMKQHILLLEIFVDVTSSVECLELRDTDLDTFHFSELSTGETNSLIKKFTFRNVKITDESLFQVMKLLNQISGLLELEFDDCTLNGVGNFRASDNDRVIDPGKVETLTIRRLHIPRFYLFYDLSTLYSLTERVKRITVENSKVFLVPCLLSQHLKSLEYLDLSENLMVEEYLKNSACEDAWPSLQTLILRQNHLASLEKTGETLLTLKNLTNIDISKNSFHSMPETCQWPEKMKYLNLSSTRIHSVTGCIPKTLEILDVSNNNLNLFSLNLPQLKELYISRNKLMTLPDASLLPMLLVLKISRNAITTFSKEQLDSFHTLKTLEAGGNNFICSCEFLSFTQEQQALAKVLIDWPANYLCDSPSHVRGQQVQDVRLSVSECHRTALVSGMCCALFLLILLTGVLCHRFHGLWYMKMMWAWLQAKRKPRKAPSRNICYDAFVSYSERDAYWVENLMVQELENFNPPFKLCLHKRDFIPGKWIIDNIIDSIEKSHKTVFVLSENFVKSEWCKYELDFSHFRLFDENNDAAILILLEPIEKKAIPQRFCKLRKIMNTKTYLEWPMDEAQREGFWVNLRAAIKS

CCCCCCCCCCCCCCCC(=O)OCC(CSC[C@H](N)C(=O)N[C@@H](CCCCNC(=O)CNC(=O)c1ccc(Cn2c(O)nc3c(N)nc(NCCCC)nc32)cc1)C(=O)NCCCNCCCCNCCCN)OC(=O)CCCCCCCCCCCCCCC (stereo partly drawn) [CL475, (6R,9S)-6,23-diamino-9-(4-(2-(4-((6-amino-2-(butylamino)-8-hydroxy-9H-purin-9-yl)methyl)benzamido)acetamido)butyl)-7,10-dioxo-4-thia-8,11,15,20-tetraazatrico sane-1,2-diyl dipalmitate]
ability to activate hTLR7 (human TLR7): activate hTLR7
ability to activate hTLR2 (human TLR2): activate hTLR2

CCCCCCCCCCCCCCCC(=O)OCC(CSC[C@H](N)C(=O)NCCCC[C@H](NC(=O)c1ccc(Cn2c(O)nc3c(N)nc(NCCCC)nc32)cc1)C(=O)NCCCNCCCCNCCCN)OC(=O)CCCCCCCCCCCCCCC (stereo partly drawn) [CL486, (6R,13S)-6,27-diamino-13-(4-((6-amino-2-(butylamino)-8-hydroxy-9H-purin-9-yl)methyl)benzamido)-7,14-dioxo-4-thia-8,15,19,24-tetraazaheptacosane-1,2-diyl dipalmitate]
ability to activate hTLR7 (human TLR7): activate hTLR7
ability to activate hTLR2 (human TLR2): activate hTLR2

CCCCCCCCCCCCCCCC(=O)OCC(CSC[C@H](N)C(=O)NCCCC[C@H](NC(=O)CNC(=O)c1ccc(Cn2c(O)nc3c(N)nc(NCCCC)nc32)cc1)C(=O)NCCCNCCCCNCCCN)OC(=O)CCCCCCCCCCCCCCC (stereo partly drawn) [CL487, (6R,13S)-6,27-diamino-13-(2-(4-((6-amino-2-(butylamino)-8-hydroxy-9H-purin-9-yl)methyl)benzamido)acetamido)-7,14-dioxo-4-thia-8,15,19,24-tetraazaheptacosane-1,2-diyl dipalmitate]
ability to activate hTLR7 (human TLR7): activate hTLR7
ability to activate hTLR2 (human TLR2): activate hTLR2

CCCCCCCCCCCCCCCC(=O)OCC(CSC[C@H](N)C(=O)N[C@@H](COC(=O)c1ccc(Cn2c(O)nc3c(N)nc(NCCCC)nc32)cc1)C(=O)NCCCNCCCCNCCCN)OC(=O)CCCCCCCCCCCCCCC (stereo partly drawn) [CL514, (6R,9S)-6,23-diamino-9-((4-((6-amino-2-(butylamino)-8-hydroxy-9H-purin-9-yl)methyl)benzoyloxy)methyl)-7,10-dioxo-4-thia-8,11,15,20-tetraazatricosane-1,2-diyl dipalmitate]
ability to activate hTLR7 (human TLR7): activate hTLR7
ability to activate hTLR2 (human TLR2): activate hTLR2
ability to transfect HEK293 cells (HEK293 cells): transfect HEK293 cells
ability to transfect B16-F1 cells (B16-F1 cells): transfect B16-F1 cells

CCCCCCCCCCCCCCCC(=O)OCC(CSC[C@H](N)C(=O)N[C@@H](CCC(=O)NCCCNCCCCNCCCN)C(=O)Nc1ccc(Cn2c(O)nc3c(N)nc(NCCCC)nc32)cc1)OC(=O)CCCCCCCCCCCCCCC (stereo partly drawn) [CL527, (6R,9S)-6,25-diamino-9-(4-((6-amino-2-(butylamino)-8-hydroxy-9H-purin-9-yl)methyl)phenylcarbamoyl)-7,12-dioxo-4-thia-8,13,17,22-tetraazapentacosane-1,2-diyl dipalmitate]
ability to activate hTLR7 (human TLR7): activate hTLR7
ability to activate hTLR2 (human TLR2): activate hTLR2
ability to transfect HEK293 cells (HEK293 cells): transfect HEK293 cells
ability to transfect B16-F1 cells (B16-F1 cells): transfect B16-F1 cells

CCCCCCCCCCCCCCCC(=O)OCC(CSC[C@H](N)C(=O)NCCCNCCCCNCCCNC(=O)CNC(=O)c1ccc(Cn2c(O)nc3c(N)nc(NCCCC)nc32)cc1)OC(=O)CCCCCCCCCCCCCCC (stereo partly drawn) [CL553, (20R)-20-amino-1-(4-((6-amino-2-(butylamino)-8-hydroxy-9H-purin-9-yl)methyl)phenyl)-1,4,19-trioxo-22-thia-2,5,9,14,18-pentaazapentacosane-24,25-diyl dipalmitate]
ability to activate hTLR7 (human TLR7): activate hTLR7
ability to activate hTLR2 (human TLR2): activate hTLR2
ability to transfect HEK293 cells (HEK293 cells): transfect HEK293 cells
ability to transfect B16-F1 cells (B16-F1 cells): transfect B16-F1 cells

— patent EP2769738B1, “Conjugated TLR7 and/or TLR8 and TLR2 polycationic agonists” (Invivogen, priority 2013, dated 2014)
